Experiment [1] concerns the target Tyrosine-protein kinase Lyn (Homo sapiens, UniProt P07948). Nature of the experiment: Selectivity interaction (Upstate Kinase Profiler service (Millipore)) EUB0000056c LYN. The conditions noted are these: at 1 µM.
Experiment [2] has as its system Proto-oncogene tyrosine-protein kinase receptor Ret (Homo sapiens), P07949 [V804M]. The conditions noted are these: at 10 µM.
For experiment [3], the target named is Mitogen-activated protein kinase kinase kinase kinase 4 (Homo sapiens, UniProt O95819). The conditions noted are these: at 10 µM.
Experiment [4] concerns T1, Receptor-type tyrosine-protein kinase FLT3 (Homo sapiens), P36888 [D835Y].
T1 sequence (whole entry): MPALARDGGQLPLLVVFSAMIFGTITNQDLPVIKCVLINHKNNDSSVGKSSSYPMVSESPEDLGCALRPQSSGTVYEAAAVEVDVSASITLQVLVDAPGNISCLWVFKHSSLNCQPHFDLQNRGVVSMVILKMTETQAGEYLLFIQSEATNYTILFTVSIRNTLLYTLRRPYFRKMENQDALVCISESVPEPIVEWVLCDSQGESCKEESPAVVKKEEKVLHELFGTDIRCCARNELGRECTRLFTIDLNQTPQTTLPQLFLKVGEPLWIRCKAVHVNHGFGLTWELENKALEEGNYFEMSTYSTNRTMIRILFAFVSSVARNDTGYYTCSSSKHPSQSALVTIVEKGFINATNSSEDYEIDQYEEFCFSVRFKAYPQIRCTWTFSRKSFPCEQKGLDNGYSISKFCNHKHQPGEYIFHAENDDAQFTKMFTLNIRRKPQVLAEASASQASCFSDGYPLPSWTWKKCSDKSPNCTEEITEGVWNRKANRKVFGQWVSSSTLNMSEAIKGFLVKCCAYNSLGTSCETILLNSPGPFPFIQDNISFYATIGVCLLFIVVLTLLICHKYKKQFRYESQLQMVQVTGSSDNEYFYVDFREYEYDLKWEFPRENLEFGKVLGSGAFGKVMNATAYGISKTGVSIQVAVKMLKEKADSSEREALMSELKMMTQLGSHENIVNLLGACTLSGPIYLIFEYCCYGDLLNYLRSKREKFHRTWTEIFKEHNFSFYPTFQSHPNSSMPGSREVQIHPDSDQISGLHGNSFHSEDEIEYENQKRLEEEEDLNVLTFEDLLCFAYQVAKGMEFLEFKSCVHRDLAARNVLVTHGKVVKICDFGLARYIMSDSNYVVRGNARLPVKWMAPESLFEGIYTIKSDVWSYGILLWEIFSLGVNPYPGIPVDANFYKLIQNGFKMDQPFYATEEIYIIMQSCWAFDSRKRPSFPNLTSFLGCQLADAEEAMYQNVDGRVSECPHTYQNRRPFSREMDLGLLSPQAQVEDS
Briefly: Selectivity interaction (KinomeScan (DiscoverX)) EUB0000695a FLT3. The conditions noted are these: at 100 nM.

For experiment [5], the target named is Serine/threonine-protein kinase PAK 2 (Homo sapiens) (UniProt Q13177). Nature of the experiment: Selectivity interaction (Kinase panel (Z-LYTE Assay)) EUB0001632a PAK2. The conditions noted are these: at 10 µM.
The target in experiment [6] is T2, Ephrin type-B receptor 1 (Homo sapiens) (UniProt P54762).
T2 sequence (whole entry): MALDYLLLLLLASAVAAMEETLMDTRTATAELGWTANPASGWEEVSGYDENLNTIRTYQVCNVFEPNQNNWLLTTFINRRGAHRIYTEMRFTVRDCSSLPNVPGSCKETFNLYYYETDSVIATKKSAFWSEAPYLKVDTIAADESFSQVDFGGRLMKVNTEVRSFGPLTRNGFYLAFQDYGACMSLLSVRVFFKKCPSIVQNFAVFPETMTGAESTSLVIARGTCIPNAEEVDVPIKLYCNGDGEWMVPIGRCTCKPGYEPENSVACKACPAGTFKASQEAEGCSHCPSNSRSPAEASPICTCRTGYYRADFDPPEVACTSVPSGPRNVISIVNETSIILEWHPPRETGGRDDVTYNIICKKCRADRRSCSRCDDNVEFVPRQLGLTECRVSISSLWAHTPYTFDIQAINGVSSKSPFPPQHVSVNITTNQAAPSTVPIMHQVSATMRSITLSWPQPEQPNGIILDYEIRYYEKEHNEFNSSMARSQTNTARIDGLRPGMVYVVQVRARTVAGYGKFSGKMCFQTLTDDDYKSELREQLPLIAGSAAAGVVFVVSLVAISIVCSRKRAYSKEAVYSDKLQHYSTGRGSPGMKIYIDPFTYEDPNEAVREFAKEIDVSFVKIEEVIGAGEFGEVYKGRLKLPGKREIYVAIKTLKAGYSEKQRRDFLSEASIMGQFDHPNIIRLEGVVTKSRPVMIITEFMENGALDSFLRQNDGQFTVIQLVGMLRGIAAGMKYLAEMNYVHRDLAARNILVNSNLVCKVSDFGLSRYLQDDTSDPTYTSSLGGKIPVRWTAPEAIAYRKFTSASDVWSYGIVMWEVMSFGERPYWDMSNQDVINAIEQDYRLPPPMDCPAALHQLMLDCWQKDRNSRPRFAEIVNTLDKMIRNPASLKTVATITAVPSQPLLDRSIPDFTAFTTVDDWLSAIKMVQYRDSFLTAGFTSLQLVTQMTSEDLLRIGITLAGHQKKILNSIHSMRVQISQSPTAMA
Nature of the experiment: Selectivity interaction (Kinase panel (Z-LYTE Assay)) EUB0001632a EPHB1. The conditions noted are these: at 10 µM.

The target in experiment [7] is T3, Histone-arginine methyltransferase CARM1 (Homo sapiens) (UniProt Q86X55).
T3 sequence (whole entry): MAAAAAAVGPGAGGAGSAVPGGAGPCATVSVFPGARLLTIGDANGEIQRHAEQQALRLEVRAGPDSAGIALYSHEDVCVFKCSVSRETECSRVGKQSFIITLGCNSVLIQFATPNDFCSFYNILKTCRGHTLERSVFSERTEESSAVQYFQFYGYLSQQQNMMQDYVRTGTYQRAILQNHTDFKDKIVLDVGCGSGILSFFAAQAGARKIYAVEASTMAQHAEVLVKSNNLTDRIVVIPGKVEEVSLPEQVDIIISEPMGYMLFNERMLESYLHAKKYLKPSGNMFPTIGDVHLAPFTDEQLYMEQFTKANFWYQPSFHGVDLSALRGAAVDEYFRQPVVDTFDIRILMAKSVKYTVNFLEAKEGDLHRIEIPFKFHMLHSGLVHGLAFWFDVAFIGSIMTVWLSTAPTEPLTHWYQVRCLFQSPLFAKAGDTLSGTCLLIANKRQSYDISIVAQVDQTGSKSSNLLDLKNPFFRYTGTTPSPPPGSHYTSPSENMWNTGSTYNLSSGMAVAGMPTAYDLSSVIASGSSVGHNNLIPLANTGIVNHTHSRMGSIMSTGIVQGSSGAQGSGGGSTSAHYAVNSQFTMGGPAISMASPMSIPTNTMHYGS
The conditions noted are these: KMS-28BM, at 3 µM.

The target in experiment [8] is Cyclin-dependent kinase 14 (Homo sapiens) (UniProt O94921). Nature of the experiment: Selectivity interaction (ActivX KiNativ screen (kinase selectivity in THP-1 cell lysates)) EUB0000639a CDK14. It counts as subcellular. The conditions noted are these: lysate, at 0.2 µM.

The record followed here is ChEMBL document CHEMBL5465560, “Selectivity Literature for EUbOPEN Chemogenomic Library” (2024).

Proto-oncogene tyrosine-protein kinase receptor Ret (Homo sapiens), P07949 [V804M], sequence (P07949 whole entry V804M): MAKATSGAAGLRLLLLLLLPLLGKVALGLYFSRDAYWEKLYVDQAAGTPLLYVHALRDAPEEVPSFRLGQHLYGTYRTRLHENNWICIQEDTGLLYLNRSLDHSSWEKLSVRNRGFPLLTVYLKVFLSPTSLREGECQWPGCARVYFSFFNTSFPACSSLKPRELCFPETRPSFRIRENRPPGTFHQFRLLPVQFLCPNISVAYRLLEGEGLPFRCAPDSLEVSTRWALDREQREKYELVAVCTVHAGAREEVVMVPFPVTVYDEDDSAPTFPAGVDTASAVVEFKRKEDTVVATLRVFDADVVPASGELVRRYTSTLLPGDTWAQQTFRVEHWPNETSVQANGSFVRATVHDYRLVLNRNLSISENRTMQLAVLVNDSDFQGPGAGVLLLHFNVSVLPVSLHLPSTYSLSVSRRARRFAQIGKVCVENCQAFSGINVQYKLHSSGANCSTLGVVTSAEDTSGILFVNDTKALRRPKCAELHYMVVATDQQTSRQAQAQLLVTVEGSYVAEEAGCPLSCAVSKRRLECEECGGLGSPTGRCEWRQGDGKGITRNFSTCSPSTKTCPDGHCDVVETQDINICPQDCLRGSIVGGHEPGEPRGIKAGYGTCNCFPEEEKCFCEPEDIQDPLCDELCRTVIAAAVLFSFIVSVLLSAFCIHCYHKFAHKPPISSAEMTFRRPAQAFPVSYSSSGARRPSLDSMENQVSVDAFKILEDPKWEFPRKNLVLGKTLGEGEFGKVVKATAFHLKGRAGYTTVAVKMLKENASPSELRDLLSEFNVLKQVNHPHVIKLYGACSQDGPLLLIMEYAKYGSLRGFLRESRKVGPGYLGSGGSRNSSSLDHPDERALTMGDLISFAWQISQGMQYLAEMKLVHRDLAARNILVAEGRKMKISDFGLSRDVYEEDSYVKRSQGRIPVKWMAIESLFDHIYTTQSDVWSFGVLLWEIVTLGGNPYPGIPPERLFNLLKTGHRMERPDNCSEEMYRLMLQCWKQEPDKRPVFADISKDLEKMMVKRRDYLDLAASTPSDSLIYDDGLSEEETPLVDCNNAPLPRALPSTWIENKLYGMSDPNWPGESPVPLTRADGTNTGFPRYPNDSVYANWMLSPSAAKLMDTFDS
Cyclin-dependent kinase 14 (Homo sapiens), sequence (O94921 whole entry): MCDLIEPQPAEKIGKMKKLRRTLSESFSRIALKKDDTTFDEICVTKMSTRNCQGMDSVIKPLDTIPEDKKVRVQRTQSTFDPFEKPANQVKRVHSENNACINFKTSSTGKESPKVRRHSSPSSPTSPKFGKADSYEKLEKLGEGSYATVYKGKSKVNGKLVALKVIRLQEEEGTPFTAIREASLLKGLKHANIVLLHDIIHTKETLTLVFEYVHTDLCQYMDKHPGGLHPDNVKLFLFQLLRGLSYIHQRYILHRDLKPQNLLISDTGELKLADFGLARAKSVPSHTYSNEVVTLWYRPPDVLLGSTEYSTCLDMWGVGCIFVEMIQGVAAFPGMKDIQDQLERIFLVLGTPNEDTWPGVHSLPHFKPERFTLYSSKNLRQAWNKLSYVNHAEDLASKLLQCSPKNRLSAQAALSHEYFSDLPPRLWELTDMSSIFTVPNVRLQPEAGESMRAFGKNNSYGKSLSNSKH
Mitogen-activated protein kinase kinase kinase kinase 4, sequence (O95819 2-1239 limits assumed): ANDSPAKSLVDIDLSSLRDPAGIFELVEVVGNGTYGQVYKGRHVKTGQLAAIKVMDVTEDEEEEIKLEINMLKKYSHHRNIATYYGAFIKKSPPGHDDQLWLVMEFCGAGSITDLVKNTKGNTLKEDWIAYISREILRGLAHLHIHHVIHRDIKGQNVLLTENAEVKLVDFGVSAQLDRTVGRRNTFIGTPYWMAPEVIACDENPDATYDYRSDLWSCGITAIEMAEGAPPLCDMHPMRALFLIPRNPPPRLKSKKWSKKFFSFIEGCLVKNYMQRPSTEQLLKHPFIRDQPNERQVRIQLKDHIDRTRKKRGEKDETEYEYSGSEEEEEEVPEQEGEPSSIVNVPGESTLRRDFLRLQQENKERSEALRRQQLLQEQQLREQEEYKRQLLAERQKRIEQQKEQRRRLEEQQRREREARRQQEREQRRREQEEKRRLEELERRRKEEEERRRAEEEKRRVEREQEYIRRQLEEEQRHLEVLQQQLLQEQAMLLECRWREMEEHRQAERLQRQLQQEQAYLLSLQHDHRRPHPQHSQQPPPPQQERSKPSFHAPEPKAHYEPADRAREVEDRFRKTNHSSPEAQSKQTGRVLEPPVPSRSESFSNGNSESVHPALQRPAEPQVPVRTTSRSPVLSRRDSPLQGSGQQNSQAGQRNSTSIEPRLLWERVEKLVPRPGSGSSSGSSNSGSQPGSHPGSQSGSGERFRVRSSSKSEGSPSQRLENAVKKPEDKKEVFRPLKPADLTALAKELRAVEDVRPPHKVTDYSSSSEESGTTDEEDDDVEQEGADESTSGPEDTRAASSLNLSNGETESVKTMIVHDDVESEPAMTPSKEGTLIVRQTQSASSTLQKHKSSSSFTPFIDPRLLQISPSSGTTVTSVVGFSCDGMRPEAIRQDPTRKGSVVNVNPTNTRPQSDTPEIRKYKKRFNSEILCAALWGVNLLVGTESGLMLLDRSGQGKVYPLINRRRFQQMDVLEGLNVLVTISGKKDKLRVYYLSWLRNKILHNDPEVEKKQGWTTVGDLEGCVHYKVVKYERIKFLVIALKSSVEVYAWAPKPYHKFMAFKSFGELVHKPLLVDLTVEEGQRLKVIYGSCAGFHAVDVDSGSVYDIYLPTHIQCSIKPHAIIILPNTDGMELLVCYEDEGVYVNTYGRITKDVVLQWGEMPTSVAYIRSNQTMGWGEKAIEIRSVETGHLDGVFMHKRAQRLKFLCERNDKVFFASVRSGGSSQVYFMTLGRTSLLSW
Serine/threonine-protein kinase PAK 2 (Homo sapiens), sequence (Q13177 whole entry): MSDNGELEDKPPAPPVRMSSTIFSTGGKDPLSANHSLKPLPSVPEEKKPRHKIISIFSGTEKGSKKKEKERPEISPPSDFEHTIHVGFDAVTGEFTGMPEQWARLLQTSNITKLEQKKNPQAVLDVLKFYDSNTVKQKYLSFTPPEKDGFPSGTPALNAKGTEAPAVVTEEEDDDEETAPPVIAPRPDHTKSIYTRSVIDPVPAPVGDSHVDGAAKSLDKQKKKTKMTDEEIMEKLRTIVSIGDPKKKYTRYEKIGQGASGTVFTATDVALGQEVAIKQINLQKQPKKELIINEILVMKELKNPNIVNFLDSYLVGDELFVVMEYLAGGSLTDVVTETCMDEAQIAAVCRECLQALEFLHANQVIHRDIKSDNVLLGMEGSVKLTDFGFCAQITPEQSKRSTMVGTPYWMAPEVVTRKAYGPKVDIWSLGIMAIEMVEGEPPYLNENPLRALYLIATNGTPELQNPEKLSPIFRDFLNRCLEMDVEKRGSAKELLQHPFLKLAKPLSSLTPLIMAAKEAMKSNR
Tyrosine-protein kinase Lyn, sequence (P07948 2-512 limits assumed): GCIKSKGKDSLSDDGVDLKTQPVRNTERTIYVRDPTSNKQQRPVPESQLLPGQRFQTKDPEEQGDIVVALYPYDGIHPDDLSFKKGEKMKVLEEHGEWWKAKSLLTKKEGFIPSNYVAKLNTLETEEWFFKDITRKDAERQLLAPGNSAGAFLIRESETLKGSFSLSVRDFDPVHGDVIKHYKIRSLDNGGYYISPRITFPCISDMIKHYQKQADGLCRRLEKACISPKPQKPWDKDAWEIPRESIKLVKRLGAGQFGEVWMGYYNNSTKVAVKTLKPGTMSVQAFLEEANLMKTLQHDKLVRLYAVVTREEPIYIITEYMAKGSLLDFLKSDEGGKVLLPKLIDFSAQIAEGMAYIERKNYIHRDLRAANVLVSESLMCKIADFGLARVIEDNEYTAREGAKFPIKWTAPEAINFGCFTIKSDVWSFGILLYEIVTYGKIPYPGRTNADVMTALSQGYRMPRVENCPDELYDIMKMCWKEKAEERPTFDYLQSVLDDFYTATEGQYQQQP

Consider `Cc1ccc(-c2ccc3c(ccc4sc5c(c43)NC[C@@H](C)NC5=O)n2)cn1`, for which the % of inhibition in experiment [1] stood at 8%.

For `Cc1cc([C@@H](C)Nc2ccccc2C(=O)O)c2nc(N3CCOCC3)cc(=O)n2c1` [AZD-6482], the % of control in experiment [2] is 100%; in experiment [3], 97%.

Regarding `Cc1cc(F)c(C(=O)Nc2cccc(-c3nncn3C(C)C)n2)cc1-n1cnc(C2CC2)c1`, in experiment [4], the % of control stood at 100%.

With `Cn1cc(-n2cnc3c(NCc4nc5cc(Cl)c(Cl)cc5[nH]4)nc(N4CCOCC4)nc32)cn1`, the % of control is -1.61% in experiment [5] and -4.1% in experiment [6].

For the molecule `CNCCN1CCC(c2cc(CN(C)C(=O)c3cccc(Oc4ccccc4)c3)ccn2)CC1`, in experiment [7], the % of growth rate was -24.1%.

For the molecule `CC[C@@H]1[C@H](F)C(=O)N[C@@H]1COc1nccc2cc(C(N)=O)c(OC)cc12` [ZIMLOVISERTIB], the % of inhibition in experiment [8] was -7.5%.
